Measured values from US5043268A, “Substrates and inhibitors for prenyl cysteine methyltransferase enzymes” (The Trustees of Princeton University, priority 1990, dated 1991).

Target: prenyl cysteine methyltransferase (Bos taurus, UniProt A0AAA9SD88)
Assay: Prenyl cysteine methyltransferase assay (3H-methyl transfer from S-adenosylmethionine to AFC, vapor-phase equilibrium)
Assay type: biochemical
Conditions: 5.0 μM (3H-methyl)-S-adenosylmethionine, 83,000×g pellet of bovine brain, 37° C., pH 7.9
Experimental: To a putative source of prenyl cysteine methyl transferase enzyme is added 50 μM of N-acetyl-S-farnesyl cysteine ("AFC") and 5.0 μM (^3 H-methyl)-S-adenosylmethionine (specific activity 16,000 cpm/pmol) in 100 mM tris-HCl, 1 mM EDTA, 1 mM DTT, pH 7.9 in a final volume of 150 μL. After heating the mixture at 37° C. for 5 to 25 minutes, 25 μL of the mixture is removed and added to 250 μL of heptane. The mixture is immediately vortexed to extract N-acetyl-S-farnesyl cysteine methyl ester into the organic phase. The mixture then is centrifuged for 30 seconds, and placed in a dry ice/acetone bath to quench the reaction. The heptane layer (200 μL) is removed and added to a 1.5 mL capless Eppendorf microcentrifuge tube. The heptane is evaporated in a Speedvac, and 25 μL of 1M sodium hydroxide is added to the remaining residue. The ^3 H-methanol produced from the hydrolysis of the ^3 H-methylesters is assayed by the vapor-phase equilibrium procedure as described in Stock, J. B., et al. (1984) Methods Enzymology, 106, 310-321 which is incorporated herein by reference.
A sample of 0.003 grams of 83,000×g. pellet from homogenized bovine brain after previous removal of the 14,000×g. pellet was subjected to the foregoing assay.

Chain of prenyl cysteine methyltransferase (A0AAA9SD88 1-284): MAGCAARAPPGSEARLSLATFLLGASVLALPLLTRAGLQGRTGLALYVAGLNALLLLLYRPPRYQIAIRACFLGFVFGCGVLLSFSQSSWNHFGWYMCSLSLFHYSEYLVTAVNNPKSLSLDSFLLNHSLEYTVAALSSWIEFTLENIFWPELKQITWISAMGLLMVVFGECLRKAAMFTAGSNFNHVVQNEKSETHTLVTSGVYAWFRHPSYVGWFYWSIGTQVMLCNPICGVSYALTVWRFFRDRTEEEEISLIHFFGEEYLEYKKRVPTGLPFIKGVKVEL

cpm (w/50 μM AFC) (5 min): 199.5 cpm | cpm (w/50 μM AFC) (10 min): 343.5 cpm | cpm (w/50 μM AFC) (15 min): 393.5 cpm | cpm (w/50 μM AFC) (20 min): 543.0 cpm | cpm (w/50 μM AFC) (25 min): 616.0 cpm
Compound: CC(=O)N[C@@H](CSC/C=C(\C)CC/C=C(\C)CCC=C(C)C)C(=O)O [AFC, N-Acetyl, S-trans,trans-farnesyl-L-cysteine]
